Source: patent US8268635B2, “Methods of identifying agents that selectively activate p38 and/or NKkB signaling” (priority 2006, dated 2012)
Where no end group is shown, it is not given here.

Assays:
Assay type in all cases: cell-based, human
ERK1/ERK2 = ERK1/ERK2 dual phosphorylation in HUVEC (western blot); settings: 15 min; TNF 100 U/ml, TNF70-80 10 μM
Description: The level of myelin basic protein phosphorylation was quantitated by an Instant Imager.
Western blot analysis was conducted as described previously (Hii, C. S., Huang, Z. H., Bilney, A., Costabile, M., Murray, A. W., Rathjen, D. A., Der, C. J., and Ferrante, A. (1998) J. Biol. Chem. 273: 19277-19282). Briefly, equal amounts of denatured protein from each lysate were separated by 12% SDS polyacrylamide gel electrophoresis (PAGE). The proteins were electrophoretically transferred to nitrocellulose membranes (Schleicher and Schuell, Keene, N. H., USA)(3 h at 40V). […] Immune complexes were visualised by enhanced chemiluminescence (Hii, C. S., Huang, Z. H., Bilney, A., Costabile, M., Murray, A. W., Rathjen, D. A., Der, C. J., and Ferrante, A. (1998) J. Biol. Chem. 273: 19277-19282).

p38 = p38 activity in HEK293T cells
Description: HEK 293T cells were stably transfected with wild-type TRAF2, a dominant-negative TRAF2 (ΔTRAF2) or an empty vector. TNF70-80 (10 μM) was added and the cells were incubated for 5 min. at 37° C., lysed and p38 immunoprecipitated. Kinase activity was assayed using myelin basic protein as a substrate. The data (representative digital radiogram and profile of phosphorylated MBP) shown are representative of 2 experiments.
HEK 293T cells were obtained from the American Type Culture Collection and maintained in DMEM, supplemented with 10% fetal calf serum. Cells, stably transfected with pRK5-TRAF2-FLAG, pRK5-TRAF287-501-FLAG (Dr. V. Dixit, Genentech Inc., South San Francisco) or an empty plasmid using LipofectAMINE 2000, were obtained from Dr P Xia, Hanson Institute, Adelaide, Australia) (Xia, P., Wang, L., Moretti, P. A., Albanese, N., Chai, F., Pitson, S. M., D'Andrea, R. J., Gamble, J. R., and Vadas, M. A. (2002) J. Biol. Chem. 277: 7996-8003).
Lysates containing equal amounts of protein (0.5-1 mg) were precleared with protein A sepharose (4° C.) before being incubated with anti-KHS, anti-p38, anti-ASK-1 or anti-ERK2 antibody (3 μg/sample). After mixing for 2 h (4° C.), the immune complexes were precipitated by the addition of protein A sepharose. The immunoprecipitates were collected by centrifugation (16,000 g×15s) and washed once with buffer A (4° C.), once with buffer B (10 mM Tris/HCl, pH 7.6, 100 mM NaCl, 1 mM EDTA and 100 μM […] and once with assay buffer (Hii, C. S., Huang, Z. H., Bilney, A., Costabile, M., Murray, A. W., Rathjen, D. A., Der, C. J., and Ferrante, A. (1998) J. Biol. Chem. 273: 19277-19282).
KHS (hereon referred to as “GCKR”) activity was assayed as described previously using myelin basic protein as a substrate (Shi, C. S., Leonardi, A., Kyriakis, J., Siebenlist, U., and Kerhl, J. H. (1999) J. Immunol. 163: 3279-3285). ASK-1 activation was determined in immunoprecipitates of ASK-1 by autophosphorylation (Kyriakis, J. M., and Auruch, J. (2001) Physiol. Rev. 81: 807-869). p38 and ERK activities were determined as described using myelin basic protein as a substrate (Hii, C. S., Huang, Z. H., Bilney, A., Costabile, M., Murray, A. W., Rathjen, D. A., Der, C. J., and Ferrante, A. (1998) J. Biol. Chem. 273: 19277-19282). […] A solid phase assay using glutathione-S-transferase (GST)-conjugated-jun (1-79) was employed to assay JNK activity (Hii, C. S., Huang, Z. H., Bilney, A., Costabile, M., Murray, A. W., Rathjen, D. A., Der, C. J., and Ferrante, A. (1998) J. Biol. Chem. 273: 19277-19282). Phosphorylated ASK-1, myelin basic protein and GST-jun (1-79) were fractionated on 8, 16 and 12% SDS polyacrylamide gels, respectively, and the bands were detected and radioactivity determined using an Instant Imager (Packard Instruments, Canberra, Australia). […]

GCKR/GLK = GCKR/GLK activity in adherent neutrophils; settings: plasma-coated dishes; 15 min; TNF 1000 U/ml, TNF70-80 10 μM
Description: GCKR was immunoprecipitated from cell lysates and activity assayed using myelin basic protein (MBP) as the substrate. […] Activation of ASK-1 was determined by kinase autophosphorylation.
KHS (hereon referred to as “GCKR”) activity was assayed as described previously using myelin basic protein as a substrate (Shi, C. S., Leonardi, A., Kyriakis, J., Siebenlist, U., and Kerhl, J. H. (1999) J. Immunol. 163: 3279-3285). ASK-1 activation was determined in immunoprecipitates of ASK-1 by autophosphorylation (Kyriakis, J. M., and Auruch, J. (2001) Physiol. Rev. 81: 807-869). p38 and ERK activities were determined as described using myelin basic protein as a substrate (Hii, C. S., Huang, Z. H., Bilney, A., Costabile, M., Murray, A. W., Rathjen, D. A., Der, C. J., and Ferrante, A. (1998) J. Biol. Chem. 273: 19277-19282). […] A solid phase assay using glutathione-S-transferase (GST)-conjugated-jun (1-79) was employed to assay JNK activity (Hii, C. S., Huang, Z. H., Bilney, A., Costabile, M., Murray, A. W., Rathjen, D. A., Der, C. J., and Ferrante, A. (1998) J. Biol. Chem. 273: 19277-19282). Phosphorylated ASK-1, myelin basic protein and GST-jun (1-79) were fractionated on 8, 16 and 12% SDS polyacrylamide gels, respectively, and the bands were detected and radioactivity determined using an Instant Imager (Packard Instruments, Canberra, Australia).

Substance: PSTHVLITHTI-OH [TNF70-80]
- dual phosphorylation of the ERKs in HUVEC (ERK1/ERK2): caused only negligible phosphorylation of the ERKs
- activity of p38 in HEK293T cells (p38): able to stimulate the activity of p38
- p38 activation in HEK293T cells expressing dominant-negative ΔTRAF2 (p38; TNF70-80 10 μM, 5 min): substantial attenuation of this response
- p38 activation in HEK293T cells over expressing TRAF2 compared to empty plasmid (p38; TNF70-80 10 μM, 5 min): enhanced the activation of p38 by TNF70-80
- increase of p38 activity over control in HEK293T cells (p38; treatment for 5 min, p<0.05, n=3): 243+27 % over control
- GCKR/GLK activity in adherent neutrophils (GCKR/GLK): poor at stimulating GCKR/GLK activity
